In ChEMBL document CHEMBL4007482, “Evaluation of anti-diabetic effect and gall bladder function with 2-thio-5-thiomethyl substituted imidazoles as TGR5 receptor agonists” (Bioorg Med Chem Lett, 2017):

Tests used:
Assay type in all cases: ADME, organism-based
[1] = AUC (0 to infinity) in C57BL/6J mouse at 20 mg/kg, po via gavage by LC-MS/MS analysis; set-up: dose 20 mg/kg, route oral, time infinity; conditions: in vivo
[2] = Cmax in C57BL/6J mouse at 20 mg/kg, po via gavage by LC-MS/MS analysis; set-up: dose 20 mg/kg, route oral; conditions: in vivo
[3] = MRT in C57BL/6J mouse at 5 mg/kg, iv by LC-MS/MS analysis; conditions: in vivo
[4] = Plasma concentration in CD-1 mouse at 50 mg/kg, po after 1.25 hrs
[5] = AUClast in C57BL/6J mouse at 5 mg/kg, iv by LC-MS/MS analysis; set-up: dose 5 mg/kg, route intravenous, time 0 - last; conditions: in vivo
[6] = Tmax in C57BL/6J mouse at 20 mg/kg, po via gavage by LC-MS/MS analysis; conditions: in vivo
[7] = Apparent volume of distribution in C57BL/6J mouse at 5 mg/kg, iv by LC-MS/MS analysis; conditions: in vivo, read-out: Vz
[8] = MRT in C57BL/6J mouse at 20 mg/kg, po via gavage by LC-MS/MS analysis; conditions: in vivo
[9] = Oral bioavailability in C57BL/6J mouse at 20 mg/kg via gavage by LC-MS/MS analysis; conditions: in vivo
[10] = Clearance in C57BL/6J mouse at 5 mg/kg, iv by LC-MS/MS analysis; conditions: in vivo
[11] = Plasma concentration in fasted C57BL/6J mouse at 50 mg/kg, po after 45 mins
[12] = Volume of distribution at steady state in C57BL/6J mouse at 5 mg/kg, iv by LC-MS/MS analysis; conditions: in vivo, read-out: Vdss
[13] = Plasma concentration in C57BL/6J mouse at 50 mg/kg, po after 45 mins by LC-MS/MS analysis
[14] = Plasma concentration in fasted C57BL/6J mouse at 30 mg/kg, sc after 45 mins
[15] = Half life in C57BL/6J mouse at 20 mg/kg, po via gavage by LC-MS/MS analysis; conditions: in vivo
[16] = AUC (0 to infinity) in C57BL/6J mouse at 5 mg/kg, iv by LC-MS/MS analysis; set-up: dose 5 mg/kg, time infinity, route intravenous; conditions: in vivo
[17] = AUClast in C57BL/6J mouse at 20 mg/kg, po via gavage by LC-MS/MS analysis; set-up: dose 20 mg/kg, time 0 - last, route oral; conditions: in vivo
[18] = Half life in C57BL/6J mouse at 5 mg/kg, iv by LC-MS/MS analysis; conditions: in vivo

AUC(0-inf) [1]: 148 ng·h/mL
Cmax [2]: 68.1 ng/mL
MRT [3]: 17 min
concentration at 1.25 h [4]: 20 nM
AUC(0-t) [5]: 379 ng·h/mL
Tmax [6]: 30 min
Vd [7]: 8.24 L/kg
MRT [8]: 82.2 min
bioavailability [9]: 6.48%
clearance [10]: 214 mL/min/kg
concentration at 0.75 h [11]: 1030 nM
Vd [12]: 4.44 L/kg
concentration at 0.75 h [13]: 1180 nM
concentration at 0.75 h [14]: 15800 nM
half-life [15]: 164 min
AUC(0-inf) [16]: 390 ng·h/mL
AUC(0-t) [17]: 98.4 ng·h/mL
half-life [18]: 26.7 min
SMILES: COc1ccc(SCc2cnc(SCc3c(F)cc(-c4nn[nH]n4)cc3F)n2-c2ccc(F)cc2)cc1OC
